Experimental findings from PubChem BioAssay AID256 (DTP/NCI, 2004) are described below.

This experiment concerns CD2F1 mice, L1210 leukemia ip, survival T/C. Description: NCI In Vivo Anticancer Drug Screen. Data for tumor model L1210 Leukemia (intraperitoneal) in CD2F1 (CDF1) mice. The conditions noted are these: higher = longer survival. In outline: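 Tumor-bearing mice (transplanted tumor) were split into treated and vehicle control groups, and the measured endpoint of each treated group was divided by that of its vehicle controls.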

The mark [1] stands for this setting: endpoint: mean survival time, dose: 12.5 mg/kg/injection, schedule: Q01DX009 (ip), vehicle: saline sonified.
Setting [2] is: endpoint: mean survival time, dose: 25.0 mg/kg/injection, schedule: Q01DX009 (ip), vehicle: saline sonified.
The mark [3] stands for this setting: endpoint: mean survival time, dose: 100.0 mg/kg/injection, schedule: Q04DX003 (ip), vehicle: saline with Tween-80.
Where [4] appears, read: endpoint: mean survival time, dose: 200.0 mg/kg/injection, schedule: Q04DX003 (ip), vehicle: saline with Tween-80.
[5] abbreviates: endpoint: mean survival time, dose: 400.0 mg/kg/injection, schedule: Q04DX003 (ip), vehicle: saline with Tween-80.
Where [6] appears, read: endpoint: mean survival time, dose: 100.0 mg/kg/injection, schedule: Q01DX001 (ip), vehicle: saline with Tween-80.
Where [7] appears, read: endpoint: mean survival time, dose: 200.0 mg/kg/injection, schedule: Q01DX001 (ip), vehicle: saline with Tween-80.
Setting [8] is: endpoint: mean survival time, dose: 100.0 mg/kg/injection, schedule: Q04DX002 (ip), vehicle: saline with Tween-80.
[9] abbreviates: endpoint: mean survival time, dose: 200.0 mg/kg/injection, schedule: Q04DX002 (ip), vehicle: saline with Tween-80.
[10] abbreviates: endpoint: mean survival time, dose: 400.0 mg/kg/injection, schedule: Q04DX002 (ip), vehicle: saline with Tween-80.
Setting [11] is: endpoint: mean survival time, dose: 25.0 mg/kg/injection, schedule: Q01DX001 (ip), vehicle: saline with Tween-80.

Several values for one entry are separate records, joined by “and”; a condition that tells them apart may be missing. Equal entries are not always repeated. Inconclusive results and toxic doses are left out.

Regarding `O=C(O)C(=O)O.[Ru].c1cnc2c(c1)ccc1cccnc12.c1cnc2c(c1)ccc1cccnc12`, the T/C by setting is: (endpoint: mean survival time, dose: 3.13 mg/kg/injection, schedule: Q04DX003 (ip), vehicle: water) 95 % of control; (endpoint: mean survival time, dose: 6.25 mg/kg/injection, schedule: Q04DX003 (ip), vehicle: water) 96 % of control; (endpoint: mean survival time, dose: 12.5 mg/kg/injection, schedule: Q04DX003 (ip), vehicle: water) 93 % of control; (endpoint: mean survival time, dose: 25.0 mg/kg/injection, schedule: Q04DX003 (ip), vehicle: water) 93 % of control; (endpoint: mean survival time, dose: 50.0 mg/kg/injection, schedule: Q04DX003 (ip), vehicle: water) 95 % of control; (endpoint: mean survival time, dose: 100.0 mg/kg/injection, schedule: Q04DX003 (ip), vehicle: water) 91 % of control. Also, the T/C (endpoint: mean survival time, dose: 200.0 mg/kg/injection, schedule: Q04DX003 (ip), vehicle: water) is 90 % of control.
On to `NC(=O)CC(C1SCCCS1)N1C(=O)OC2C(O)C(CO)OC21` (stereo not given), for which the T/C by setting is: (endpoint: mean survival time, dose: 10.94 mg/kg/injection, schedule: Q01DX005 (ip), vehicle: water) 100 % of control; (endpoint: mean survival time, dose: 21.88 mg/kg/injection, schedule: Q01DX005 (ip), vehicle: water) 93 % of control; (endpoint: mean survival time, dose: 43.75 mg/kg/injection, schedule: Q01DX005 (ip), vehicle: water) 98 % of control; (endpoint: mean survival time, dose: 87.5 mg/kg/injection, schedule: Q01DX005 (ip), vehicle: water) 100 % of control; (endpoint: mean survival time, dose: 175.0 mg/kg/injection, schedule: Q01DX005 (ip), vehicle: water) 90 % of control.
For `O=C(O)CC1C(=O)OC2C3COC(=O)c4cc(O)c(O)c(O)c4-c4c(cc(O)c(O)c4O)C(=O)OC2C(OC(=O)c2cc(O)c(O)c4c2C1C(O)C(=O)O4)C(OC(=O)c1cc(O)c(O)c(O)c1)O3` (stereo not given), the T/C (endpoint: median survival time, dose: 3.12 mg/kg/injection, schedule: Q01DX009 (ip), vehicle: saline) was 102 % of control; the T/C (endpoint: median survival time, dose: 6.25 mg/kg/injection, schedule: Q01DX009 (ip), vehicle: saline) is 98 % of control; the T/C (endpoint: median survival time, dose: 12.5 mg/kg/injection, schedule: Q01DX009 (ip), vehicle: saline) was 101 % of control; the T/C (endpoint: median survival time, dose: 25.0 mg/kg/injection, schedule: Q01DX009 (ip), vehicle: saline) is 98 % of control; the T/C (endpoint: median survival time, dose: 50.0 mg/kg/injection, schedule: Q01DX009 (ip), vehicle: saline) was 100 % of control.
In the case of `NCCCOCCOCCOCCOCCCN`, the T/C is, setting by setting: (endpoint: mean survival time, dose: 25.0 mg/kg/injection, schedule: Q04DX002 (ip), vehicle: saline) 105 % of control; (endpoint: mean survival time, dose: 50.0 mg/kg/injection, schedule: Q04DX002 (ip), vehicle: saline) 101 % of control; (endpoint: mean survival time, dose: 100.0 mg/kg/injection, schedule: Q01DX001 (ip), vehicle: saline sonified) 97 % of control; (endpoint: mean survival time, dose: 100.0 mg/kg/injection, schedule: Q04DX002 (ip), vehicle: saline) 101 % of control.
Turning to `Cn1cnc([N+](=O)[O-])c1Sc1nc(N)nc2nc[nH]c12`, the T/C (endpoint: mean survival time, dose: 5.0 mg/kg/injection, schedule: Q03DX003 (ip), vehicle: Klucel (hydroxypropylcellulose) (HPC)) is 153 % of control; the T/C (endpoint: mean survival time, dose: 10.0 mg/kg/injection, schedule: Q01DX007 (ip), vehicle: Klucel (hydroxypropylcellulose) (HPC)) is 122 % of control; the T/C (endpoint: mean survival time, dose: 10.0 mg/kg/injection, schedule: Q03DX003 (ip), vehicle: Klucel (hydroxypropylcellulose) (HPC)) was 160 % of control; the T/C (endpoint: mean survival time, dose: 20.0 mg/kg/injection, schedule: Q01DX007 (ip), vehicle: Klucel (hydroxypropylcellulose) (HPC)) was 117 % of control; the T/C (endpoint: mean survival time, dose: 20.0 mg/kg/injection, schedule: Q03DX003 (ip), vehicle: Klucel (hydroxypropylcellulose) (HPC)) was 154 % of control.
Turning to `CC(=O)OCCOCCOCc1ccccc1`, the T/C by setting is: (endpoint: mean survival time, dose: 100.0 mg/kg/injection, schedule: Q01DX001 (ip), vehicle: other) 96 % of control; (endpoint: mean survival time, dose: 200.0 mg/kg/injection, schedule: Q01DX001 (ip), vehicle: other) 102 % of control; (endpoint: mean survival time, dose: 400.0 mg/kg/injection, schedule: Q01DX001 (ip), vehicle: other) 98 % of control.
For `CCCCCCCCCCNC(=O)C[n+]1cccc(C(=O)N(C)C)c1`, the T/C is, setting by setting: under setting [1], 100 % of control; (endpoint: mean survival time, dose: 12.5 mg/kg/injection, schedule: Q04DX003 (ip), vehicle: saline) 95 % of control; under setting [2], 97 % of control; (endpoint: mean survival time, dose: 25.0 mg/kg/injection, schedule: Q04DX003 (ip), vehicle: saline) 97 % of control; (endpoint: mean survival time, dose: 50.0 mg/kg/injection, schedule: Q01DX009 (ip), vehicle: saline sonified) 102 % of control; (endpoint: mean survival time, dose: 50.0 mg/kg/injection, schedule: Q04DX003 (ip), vehicle: saline) 101 % of control.
Take `Cc1ccc(NC(=O)Nc2ccccc2F)cc1NC(=O)Nc1ccccc1F`: the T/C is 100 % of control under setting [3], 104 % of control under setting [4] and 100 % of control under setting [5].
`O=C(O)CCCCCCCCCO`: the T/C runs as follows: under setting [6], 91 % of control; under setting [7], 87 % of control; (endpoint: mean survival time, dose: 400.0 mg/kg/injection, schedule: Q01DX001 (ip), vehicle: saline with Tween-80) 86 % of control.
`CC(=O)Nc1ccc([N+](=O)[O-])cc1C`: the T/C runs as follows: (endpoint: mean survival time, dose: 50.0 mg/kg/injection, schedule: Q04DX003 (ip), vehicle: saline with Tween-80) 101 % of control; under setting [3], 100 % of control; under setting [4], 103 % of control.
Take `CC1SCCCS1`: the T/C (endpoint: mean survival time, dose: 12.5 mg/kg/injection, schedule: Q04DX003 (ip), vehicle: other) was 106 % of control; the T/C (endpoint: mean survival time, dose: 25.0 mg/kg/injection, schedule: Q04DX003 (ip), vehicle: other) is 104 % of control; the T/C (endpoint: mean survival time, dose: 50.0 mg/kg/injection, schedule: Q04DX003 (ip), vehicle: other) is 102 % of control; the T/C (endpoint: mean survival time, dose: 100.0 mg/kg/injection, schedule: Q04DX003 (ip), vehicle: other) is 102 % of control; the T/C (endpoint: mean survival time, dose: 200.0 mg/kg/injection, schedule: Q04DX003 (ip), vehicle: other) was 97 % of control.
Consider `CN(C)C(=O)Sc1ccc(S(=O)(=O)F)c(Cl)c1Cl`, for which the T/C reads like this: under setting [8], 100 % of control; under setting [9], 100 % of control; under setting [10], 103 % of control.
In the case of `CC(=O)CC(Br)CBr` (stereo not given), the T/C under setting [3] was 96 % of control.
As to `CCCC(=O)NC1=C(Cl)C(=O)c2ccccc2C1=O`, the T/C is 88 % of control (endpoint: mean survival time, dose: 5.0 mg/kg/injection, schedule: Q01DX001 (ip), vehicle: saline); 103 % of control (endpoint: mean survival time, dose: 10.0 mg/kg/injection, schedule: Q01DX001 (ip), vehicle: saline); 95 % of control (endpoint: mean survival time, dose: 20.0 mg/kg/injection, schedule: Q01DX001 (ip), vehicle: saline).
For `NC(=O)C1(C(N)=O)CCCC1`, the T/C reads like this: (endpoint: mean survival time, dose: 75.0 mg/kg/injection, schedule: Q04DX002 (ip), vehicle: saline with Tween-80) 112 % of control; (endpoint: mean survival time, dose: 150.0 mg/kg/injection, schedule: Q04DX002 (ip), vehicle: saline with Tween-80) 96 % of control; (endpoint: mean survival time, dose: 300.0 mg/kg/injection, schedule: Q04DX002 (ip), vehicle: saline with Tween-80) 96 % of control.
Take `C[N+](C)(CC(=O)Nc1ccc(Cl)c(Cl)c1)Cc1ccc(Cl)c(Cl)c1`: the T/C (endpoint: mean survival time, dose: 6.25 mg/kg/injection, schedule: Q01DX001 (ip), vehicle: saline with Tween-80) is 101 % of control; the T/C (endpoint: mean survival time, dose: 6.25 mg/kg/injection, schedule: Q01DX009 (ip), vehicle: saline sonified) was 94 % of control; the T/C (endpoint: mean survival time, dose: 12.5 mg/kg/injection, schedule: Q01DX001 (ip), vehicle: saline with Tween-80) was 103 % of control; the T/C under setting [1] is 93 % of control; the T/C under setting [11] is 105 % of control; the T/C under setting [2] was 86 % of control.
As to `CC1(C)COC(CCc2ccccc2)=N1`, the T/C runs as follows: under setting [8], 108 % of control; under setting [3], 104 % of control; under setting [9], 101 % of control; under setting [4], 93 % of control; under setting [10], 101 % of control; under setting [5], 86 % of control.
As for `Cc1ccc(S(=O)[O-])cc1.[C-]#[O+].[C-]#[O+].[Fe+6].[c-]1[c-][c-][cH-][c-]1`, the T/C was 97 % of control (endpoint: mean survival time, dose: 50.0 mg/kg/injection, schedule: Q04DX002 (ip), vehicle: saline with Tween-80) and 108 % of control under setting [9].
Turning to `O=C(O)/C=C/c1ccc([N+](=O)[O-])o1`, the T/C is, setting by setting: under setting [11], 96 % of control; (endpoint: mean survival time, dose: 50.0 mg/kg/injection, schedule: Q01DX001 (ip), vehicle: saline with Tween-80) 89 % of control; under setting [6], 115 % of control and 98 % of control; under setting [7], 94 % of control.
For `CNC(=S)/N=c1/scc(C)n1C`, the T/C reads like this: under setting [8], 91 % of control; under setting [9], 91 % of control; under setting [10], 111 % of control.
